In brackets after ≈: the same amount, converted by molar mass. Several values for one entry are separate records, joined by “and”; a condition that tells them apart may be missing. Equal values may be shown once. Read-outs that look alike come from different tables or passages of the source.
How the values were obtained:
[1] = system: pqsA promoter (PA14 PpqsA-GFPASV); test: pqsA-GFP reporter expression; assay type: cell-based, Pseudomonas aeruginosa; settings: Pseudomonas aeruginosa
PA14 AT/P cells = test: AT/P cells formation assay in PA14; assay type: cell-based, Pseudomonas aeruginosa
[2] = system: 16 MDR P. aeruginosa clinical isolates; test: Pyocyanin production in MDR clinical isolates; settings: Pseudomonas aeruginosa, 18 h, Control about 100, replicates
[3] = system: MvfR-regulated small molecules in PA14; test: Production of HAQs, 2-AA, DHQ and AA in PA14 cultures (LC-MS); settings: Pseudomonas aeruginosa
MvfR protein (MvfRC87) = molecular target: T1, MvfR protein (MvfRC87) (Pseudomonas aeruginosa, UniProt Q9I4X0); assay type: binding; settings: SPR
T1 construct: The MvfRC87 protein purified as in Xiao et. al., 2006; made in house
Procedure, shortened: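 MvfRC87 amine-coupled to a CM7 chip (3000–5000 RU) and binding measured by SPR. Double-reference-corrected responses 5 s before end of association plotted against concentration, for inhibitor alone and with native ligand PQS, compared with responses calculated for different binding sites.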

[4] = system: PA14 isogenic mutant ΔmvfR AT/P cells; test: AT/P cell formation in ΔmvfR mutant (off-target); settings: Pseudomonas aeruginosa, PA14, 24 h, read-out: AT/P cell formation, ΔmvfR + compound; PA14 about 100; single replicates (Figure 4b)
[5] = Solubility in iPBS pH 7.4 by HPLC; assay type: physicochemical; settings: isotonic phosphate buffer (iPBS), aqueous with cosolvent or surfactant or cyclodextrin, kinetic from dmso stock; iPBS pH 7.4, HPLC; read-out: Solubility (M) in PBS
Procedure, shortened: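 Compounds from 10 mM DMSO stock shaken 4 h at room temperature in iPBS pH 7.4 (10 mM PBS, 2.7 mM KCl, 140 mM NaCl, 0.05% Tween), then filtered. Concentration measured by HPLC-UV against a known standard solution; solubility given as ratio of compound in test solution to standard.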

[6] = system: pyocyanin production in PA14; test: Pyocyanin production assay; settings: Pseudomonas aeruginosa
Experimental: The over-day culture was grown to OD600nm 1.5., diluted again at 1:10,000 in 5 mL LB and incubated with 10 μM of the test compound or the vehicle control for 18 hours at 37 °C and 200 rpm in an incubator shaker. After 18 h, 1 mL of culture was centrifuged for 2 min at 20.000 x g. The supernatant was transferred to a new tube, 200 μL of this were loaded in a flat-bottom 96-well plate, and the pyocyanin levels were quantified by measuring at OD690nm in the infinite F200 plate reader using the Magellan software (Tecan, Switzerland). […] The percent of pyocyanin was calculated compared to the PA14 culture grown in the absence of compounds.
To determine the IC50 of pyocyanin production, we followed the same process as above. […] Using GraphPad Prism Software, the IC50 curve was plotted against percent inhibition of pyocyanin production at each concentration using PA14 in the absence of compounds as a control.

ΔmvfR biofilm = test: Biofilm formation of ΔmvfR mutant (off-target); settings: Pseudomonas aeruginosa, PA14, 24 h, read-out: Biofilm formation, ΔmvfR + compound; PA14 about 100; single replicates (Figure 4c)
Experimental: Biofilm was grown in the 96-well microtiter plate at 37 °C for 24 h containing M63 minimal media in the presence of 10 µM of the compounds or vehicle. The biofilm grown with the vehicle was considered as a control. The percentage value was calculated in comparison to the PA14 control. a–c Data represent at least n = 3, each dot on the graph represents one biological replicate. The number of biological replicates for each compound and strain is depicted in the graph. The error bars denote ±SEM.
The overnight grown starter culture was diluted 1:1000 in 5 mL LB media in a glass tube and was incubated at 37 °C and 200 rpm in an incubator shaker until the culture reached an OD600nm 3.0. The culture was then diluted at 1:100 in M63 minimal media supplemented with 0.2% glucose, 0.5% Casamino Acids, and 1 mM MgSO4. Initiation of the Biofilm formation was performed in the 96 well plates; 200 µL of diluted culture was added in the wells with (10 µM) or without compounds. The cultures were allowed to grow at 37 °C in static conditions for 24 hours. Thereafter, planktonic culture was removed from the wells, and wells were washed three times with distilled water (DW). Biofilm was stained with 0.1% crystal violet and incubated for 15 min at room temperature (RT). Access dye was removed from the wells and washed off three times with DW, and 200 µL ethanol: acetone (80:20) was added to the wells. The plate was incubated for 30 min at RT, and the OD was measured by spectrophotometry at 570 nm in the infinite F200 plate reader using the Magellan software (Tecan, Switzerland). Percent biofilm formation was calculated in comparison to PA14 culture that was grown in the absence of compounds.

[7] = system: mvfR mutant constitutively expressing the pqsABCDE operon; assay type: cell-based; settings: Pseudomonas aeruginosa, control about 100, single replicates (Figure 4a)

T1 sequence (Q9I4X0 87-332): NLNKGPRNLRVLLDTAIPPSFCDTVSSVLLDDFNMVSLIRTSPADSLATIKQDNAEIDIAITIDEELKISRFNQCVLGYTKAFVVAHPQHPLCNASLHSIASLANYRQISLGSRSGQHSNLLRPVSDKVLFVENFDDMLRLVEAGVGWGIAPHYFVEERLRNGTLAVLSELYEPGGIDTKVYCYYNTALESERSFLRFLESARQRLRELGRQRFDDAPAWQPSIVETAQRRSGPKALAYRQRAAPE

Which results are given for N#Cc1ccc(NC(=O)CC(=O)Nc2ccc(C(F)(F)F)cc2)cc1 [D69]?
activity at 50 µM ([1]; PA14, read-out: % Production pqsA-GFP): 2%; IC50 ([1]; PA14, read-out: IC50 pqsA-GFP expression, PA14, 13 concentrations): 1700 nM; AT/P cells formation, percentage of control (single replicates) (PA14 AT/P cells; PA14, 10 μg mL^−1 meropenem, 10 µM compound, 24 h, control PA14 + vehicle): 16.39% and 11.56%; inhibition at 10 µM (PA14 AT/P cells; Pseudomonas aeruginosa, PA14, 24 h, read-out: inhibition of AT/P cells formation): ≥ 76%; activity at 10 µM ([2]; read-out: Pyocyanin production relative to Control, clinical isolate LGR-4325): 6.19%; activity at 10 µM ([2]; read-out: Pyocyanin production relative to Control, clinical isolate LGR-4326): 4.51%; activity at 10 µM ([2]; read-out: Pyocyanin production relative to Control, clinical isolate LGR-4327): 7.7%; activity at 10 µM ([2]; read-out: Pyocyanin production relative to Control, clinical isolate LGR-4328): 29.6%; activity at 10 µM ([2]; read-out: Pyocyanin production relative to Control, clinical isolate LGR-4330): 12.9%; activity at 10 µM ([2]; read-out: Pyocyanin production relative to Control, clinical isolate LGR-4331 (first section, r117)): 9.26%; activity at 10 µM ([2]; read-out: Pyocyanin production relative to Control, clinical isolate LGR-4331 (second section, r140)): 4.8%; activity at 10 µM ([2]; read-out: Pyocyanin production relative to Control, clinical isolate LGR-4333): 6.7%; activity at 10 µM ([2]; read-out: Pyocyanin production relative to Control, clinical isolate LGR-4343): 10.8%; activity at 10 µM ([2]; read-out: Pyocyanin production relative to Control, clinical isolate LGR-4344): 11.6%; activity at 10 µM ([2]; read-out: Pyocyanin production relative to Control, clinical isolate LGR-4348): 7.58%; activity at 10 µM ([2]; read-out: Pyocyanin production relative to Control, clinical isolate LGR-4356): 6.29%; activity at 10 µM ([2]; read-out: Pyocyanin production relative to Control, clinical isolate LGR-4362): 12.3%; activity at 10 µM ([2]; read-out: Pyocyanin production relative to Control, clinical isolate LGR-4363): 9.09%; activity at 10 µM ([2]; read-out: Pyocyanin production relative to Control, clinical isolate LGR-4364 (first section, r326)): 10.1%; activity at 10 µM ([2]; read-out: Pyocyanin production relative to Control, clinical isolate LGR-4364 (second section, r349)): 11.1%; activity at 50 µM ([3]; PA14, read-out: % Production 2-AA): 15%; activity at 50 µM ([3]; PA14, read-out: % Production AA): 920%; activity at 50 µM ([3]; PA14, read-out: % Production DHQ): 13%; activity at 50 µM ([3]; PA14, read-out: % Production HHQ): 6%; activity at 50 µM ([3]; PA14, read-out: % Production HQNO): 40%; activity at 50 µM ([3]; PA14, read-out: % Production PQS): 16%; inhibition at 50 µM ([3]; PA14, read-out: HHQ production inhibition): 89 to 99%; inhibition at 50 µM ([3]; PA14, read-out: HQNO production inhibition): 40 to 92%; inhibition at 50 µM ([3]; PA14, read-out: PQS production inhibition): 76 to 97%; inhibition at 50 µM ([3]; PA14, read-out: inhibition of 2-AA production): 82 to 95%; inhibition at 50 µM ([3]; PA14, read-out: inhibition of DHQ production): 82 to 96%; Response Unit (RU) (MvfR protein (MvfRC87); Concentration 1.00E-05 M): 30 RU; Response Unit (RU) (MvfR protein (MvfRC87); Concentration 1.00E-06 M): 22.4 RU; Response Unit (RU) (MvfR protein (MvfRC87); Concentration 1.00E-07 M): 8.9 RU; Response Unit (RU) (MvfR protein (MvfRC87); Concentration 1.00E-08 M): 1.7 RU; Response Unit (RU) (MvfR protein (MvfRC87); Concentration 3.16E-06 M): 27.3 RU; Response Unit (RU) (MvfR protein (MvfRC87); Concentration 3.16E-07 M): 15.6 RU; Response Unit (RU) (MvfR protein (MvfRC87); Concentration 3.16E-08 M): 4.1 RU; activity at 10 µM [4]: 30.1%; solubility at 4 h [5]: 2.1e-05 M (≈ 7.29 µg/mL); activity at 50 µM ([6]; PA14, 18 h, read-out: % Production Pyocyanin): 4%; IC50 ([6]; PA14, read-out: IC50 pyocyanin production): 960 nM; activity at 10 µM (ΔmvfR biofilm): 24.2%; activity at 50 µM ([7]; read-out: DHQ, ΔmvfR-pqsABCD strain): 112%; activity at 50 µM ([7]; read-out: PQS, ΔmvfR-pqsABCD strain): 90.7%
